Source: paper PMC2424174, “Suppression of Tumor Growth and Angiogenesis by a Specific Antagonist of the Cell-Surface Expressed Nucleolin” (PLoS ONE, 2008)

Columns and labels:
HUVECs = experiment: Proliferation of VEGF stimulated HUVECs; assay type: cell-based, human; settings: 0.25 nM VEGF165; 1 µM HB-19 or 0.1 µM mAb MS-3; 72 h; mean of triplicate
Method: Figure 6 Inhibition of in vitro and in vivo angiogenesis by HB-19. (A) HB-19 inhibits proliferation of HUVECs. Twenty-four hours after seeding HUVECs in 2% FBS, cells were stimulated by 0.25 nM VEGF165, in the absence or presence of 1 µM HB-19 or 0.1 µM anti-nucleolin mAb MS-3 as indicated. After 72 h, cell number was determined by crystal violet staining. The data are reported as the mean of triplicate samples. (B) HB-19 inhibits migration of HUVECs. Cell migration was studied using a modified Boyden chamber. Cells were incubated (4 h at 37°C) with VEGF165, HB-19, or anti-nucleolin mAb MS-3 as above. Cells that migrated through the pore to the lower filter surface were counted and are shown as number per microscopic field at ×100 magnification. The data are the mean of three independent high-power fields/well performed in duplicate in two independent experiments. […] Aortic endothelial (ABAE) cells in the absence or presence of 3 nM PTN, 0.5 nM VEGF165, and 3 nM FGF-2 were seeded on a three-dimensional collagen gel in complete medium. […] Tubular network structures were quantified using phase contrast microscopy (×100). […] Quantification of endothelial cell invasion into the Matrigel was determined and is expressed as a mean of five fields per section from 3 Matrigel-plug sections per mouse. The results are expressed as the mean of five mice per group. […]

B16 cells = experiment: Colony formation in soft agar, B16; assay type: cell-based, mouse; settings: 5 µM HB-19, B16
Method: (§1) Figure 4 HB-19 inhibits colony formation in soft agar by tumor cell lines. (A) MDA-MB-231 cells in culture medium were seeded in triplicate in the absence (histogram C) or presence of 0.1, 0.5 and 1 of µM HB-19, or 0.1 µM of the anti-nucleolin mAb MS-3 or control IgG, or 10 µM bisphosphonate (BisP). (B) Various tumor cell lines (as indicated) in culture medium were seeded in triplicate in the absence (histogram Control) or presence of 5 µM HB-19. After 10–21 days, colonies with diameters greater than 50 µm were scored as positive. Statistical significance: *0.01<p<[…], **p<0.01, ***p<0.001.
(§2) Carcinoma cells (2×10^4) were mixed in 0.35% top agar, diluted in complete medium (DMEM containing 10% FBS) in the absence or presence of HB-19, and plated onto 0.8% bottom agar into 12-well plates. Cells were treated twice a week during 10 to 21 days. Colonies with diameters greater than 50 µm were scored as positive using a phase contrast microscope equipped with a measuring grid at magnification 100× [45]. The number of colonies was determined by analyzing 5 fields/well from 3 wells and the test was repeated at least twice.

PC3 cells = experiment: Colony formation in soft agar, PC3; assay type: cell-based, human; settings: 5 µM HB-19, PC3
Method: as §1, §2

Substance: pseudo-tripeptide Lysψ(CH2N)-Pro-Arg coupled to a template (H2NLys-Lys-Lys-Gly-Pro-Lys-Glu-Lys-AhxCONH2) [HB-19, pseudopeptide presenting pentavalently the pseudo-tripeptide Lysψ(CH2N)-Pro-Arg coupled to a template]
- inhibition of HUVEC proliferation (HUVECs): inhibited dramatically both of these events down to levels comparable to that of unstimulated cells
- colony formation (B16 cells): reduced markedly
- colony formation (PC3 cells): reduced markedly
